Assay results taken from EPA's ToxRefDB 2.

What was measured:
dog [1] = conditions: Sub-acute repeat dose toxicity; beagle; Oral; Gavage/Intubation; dose end: 4 week; group: systemic; systemic / in life observation / clinical signs / abnormal feces
rat [2] = conditions: Sub-acute repeat dose toxicity, sprague dawley, Oral, Gavage/Intubation, dose end: 4 week, group: systemic
rat [3] = conditions: Prenatal developmental toxicity study, sprague dawley, Oral, Gavage/Intubation, dose end: 17 GD
rabbit [4] = conditions: Prenatal developmental toxicity study, new zealand white, Oral, Gavage/Intubation, dose end: 19 GD
rat [5] = conditions: Fertility (Segment I), sprague dawley, Oral, Gavage/Intubation, dose end: 7 GD
rat [6] = conditions: Prenatal developmental toxicity study, sprague dawley, Oral, Gavage/Intubation, dose end: 17 GD; remark: listed apart in the source
rat [7] = conditions: Developmental neurotoxicity study, long evans, Oral, Gavage/Intubation, dose end: 110 PND, group: cannot be grouped
rat [8] = conditions: Prenatal developmental toxicity study, sprague-dawley, Oral, Gavage/Intubation, dose end: 15 GD
rat [9] = conditions: Combined chronic toxicity/carcinogenicity, other, Oral, Feed, dose end: 24 month, group: systemic
rabbit [10] = conditions: Prenatal developmental toxicity study, himalayan, Oral, Gavage/Intubation, dose end: 19 GD
dog [11] = conditions: Chronic toxicity, beagle, Oral, Feed, dose end: 52 week, group: systemic
rat [12] = conditions: Multigenerational reproductive toxicity study, other, Oral, Feed, dose end: 2 generation
rat [13] = conditions: Subchronic oral toxicity in rodents, sprague dawley, Feed, dose end: 3 month, group: systemic
mouse = conditions: Carcinogenicity, other, Oral, Feed, dose end: 18 month, group: systemic
dog [14] = conditions: Subchronic oral toxicity in nonrodent, beagle, Feed, dose end: 90 day, group: systemic, systemic / clinical chemistry / albumin / albumin + systemic / clinical chemistry / albumin-globulin ratio / albumin-globulin ratio + …
[15] = systemic / clinical chemistry / cholesterol / cholesterol + systemic / pathology microscopic / kidney / karyomegaly + systemic / pathology …
[16] = systemic / pathology microscopic / kidney / karyomegaly + systemic / pathology microscopic / kidney / necrosis + systemic / pathology …
[17] = group: developmental, developmental / developmental malformation / bone / branched + developmental / developmental malformation / bone / full supernumerary + …
[18] = group: developmental, developmental / developmental malformation / bone / short + developmental / developmental malformation / bone / unossified + developmental…
[19] = group: maternal, systemic / in life observation / body weight / body weight + systemic / in life observation / body weight / body weight gain + systemic / in…
[20] = group: maternal, systemic / in life observation / food consumption / food consumption
[21] = group: developmental, systemic / in life observation / body weight / fetal weight
[22] = group: maternal, systemic / in life observation / body weight / body weight gain + systemic / in life observation / clinical signs / defecation + systemic / …
[23] = group: maternal, reproductive / reproductive performance / estrous cycle / corpora lutea + reproductive / reproductive performance / implantations / …
[24] = group: parental, systemic / in life observation / body weight / body weight gain + systemic / in life observation / food consumption / food consumption
[25] = group: developmental, developmental / developmental malformation / trunk / thoracogastroschisis + systemic / in life observation / body weight / fetal weight
[26] = group: maternal, reproductive / reproductive performance / postimplantation loss / postimplantation loss + systemic / in life observation / body weight / …
[27] = systemic / in life observation / body weight / body weight gain + systemic / in life observation / clinical signs / vaginal discharge + …
[28] = group: developmental, developmental / developmental malformation / bone / unossified + developmental / developmental malformation / bone / [other]
[29] = group: developmental, developmental / developmental malformation / bone / unossified + developmental / developmental malformation / bone / [other] + developmental…
[30] = group: maternal, systemic / in life observation / body weight / body weight gain + systemic / in life observation / food consumption / food consumption
[31] = systemic / pathology microscopic / kidney / atrophy
[32] = systemic / pathology microscopic / kidney / atrophy + systemic / in life observation / body weight / body weight + systemic / in life …
[33] = group: developmental, developmental / developmental malformation / heart / misshapen
[34] = group: maternal, systemic / in life observation / clinical signs / hemorrhagic perineal discharge + systemic / in life observation / mortality / mortality
[35] = group: maternal, systemic / in life observation / clinical signs / hemorrhagic perineal discharge + systemic / in life observation / mortality / mortality + …
[36] = systemic / pathology gross / lung / foci + systemic / in life observation / body weight / body weight gain + systemic / pathology …
[37] = group: offspring, systemic / in life observation / body weight / offspring (pup) weight + systemic / organ weight / spleen / absolute + systemic / organ …
[38] = group: parental, systemic / in life observation / body weight / body weight + systemic / in life observation / body weight / body weight gain + systemic / in…
[39] = systemic / in life observation / body weight / body weight + systemic / in life observation / body weight / body weight gain
[40] = systemic / in life observation / body weight / body weight + systemic / in life observation / body weight / body weight gain + systemic / …
[41] = systemic / in life observation / body weight / body weight + systemic / in life observation / body weight / body weight gain + systemic / in…

With `Cc1nc(-c2ccccn2)ncc1C(=O)Nn1cc(C)c2cc(F)ccc21` as the compound, how does the LEL (dog [1]) read?
The LEL was 100 mg/kg/day.

And the LOAEL (dog [1])?
Its LOAEL is 100 mg/kg/day.

And the NEL (dog [1])?
Its NEL is 30 mg/kg/day.

What about the NOAEL (dog [1]) of the same compound?
The NOAEL was 30 mg/kg/day.

What about the LOAEL (rat [2]; [15]) of the same compound?
The LOAEL was 110 mg/kg/day.

And the NOAEL (rat [2]; [15])?
Its NOAEL is 30 mg/kg/day.

What about the LEL (rat [2]; [16]) of the same compound?
Its LEL is 10 mg/kg/day.

What about the NEL (rat [2]; [16]) of the same compound?
The NEL was < 10 mg/kg/day.

What about the LOAEL (rat [3]; [17]) of the same compound?
The LOAEL was > 110 mg/kg/day.

What about the NOAEL (rat [3]; [17]) of the same compound?
The NOAEL was ≥ 110 mg/kg/day.

What about the LEL (rat [3]; [18]) of the same compound?
The LEL was 10 mg/kg/day.

What about the NEL (rat [3]; [18]) of the same compound?
The NEL was < 10 mg/kg/day.

What about the LOAEL (rat [3]; [19]) of the same compound?
The LOAEL was 110 mg/kg/day.

What about the NEL (rat [3]; [19]) of the same compound?
The NEL was 10 mg/kg/day.

What about the NOAEL (rat [3]; [19]) of the same compound?
Its NOAEL is 30 mg/kg/day.

What about the LEL (rat [3]; [20]) of the same compound?
The LEL was 30 mg/kg/day.

And the LEL (rabbit [4]; [21])?
The LEL was 500 mg/kg/day.

What about the LOAEL (rabbit [4]; [21]) of the same compound?
Its LOAEL is > 2000 mg/kg/day.

And the NEL (rabbit [4]; [21])?
Its NEL is < 500 mg/kg/day.

What about the NOAEL (rabbit [4]; [21]) of the same compound?
Its NOAEL is ≥ 2000 mg/kg/day.

What about the LEL (rabbit [4]; [22]) of the same compound?
The LEL was 500 mg/kg/day.

What about the LOAEL (rabbit [4]; [22]) of the same compound?
Its LOAEL is > 2000 mg/kg/day.

What about the NEL (rabbit [4]; [22]) of the same compound?
Its NEL is < 500 mg/kg/day.

What about the NOAEL (rabbit [4]; [22]) of the same compound?
Its NOAEL is ≥ 2000 mg/kg/day.

What about the LEL (rat [5]; [23]) of the same compound?
The LEL was 110 mg/kg/day.

And the LOAEL (rat [5]; [23])?
The LOAEL was > 110 mg/kg/day.

What about the NEL (rat [5]; [23]) of the same compound?
The NEL was 30 mg/kg/day.

And the NOAEL (rat [5]; [23])?
Its NOAEL is ≥ 110 mg/kg/day.

What about the LEL (rat [5]; group: parental, systemic / in life observation / body weight / body weight gain) of the same compound?
Its LEL is 30 mg/kg/day.

And the LOAEL (rat [5]; [24])?
The LOAEL was > 110 mg/kg/day.

And the NEL (rat [5]; [24])?
Its NEL is 10 mg/kg/day.

What about the NOAEL (rat [5]; [24]) of the same compound?
The NOAEL was ≥ 110 mg/kg/day.

What about the LOAEL (rat [6]; [25]) of the same compound?
The LOAEL was > 110 mg/kg/day.

And the NEL (rat [6]; [25])?
The NEL was 10 mg/kg/day.

And the NOAEL (rat [6]; [25])?
The NOAEL was ≥ 110 mg/kg/day.

And the LEL (rat [6]; [21])?
The LEL was 30 mg/kg/day.

And the LEL (rat [6]; [26])?
The LEL was 110 mg/kg/day.

What about the LOAEL (rat [6]; [26]) of the same compound?
Its LOAEL is > 110 mg/kg/day.

What about the NEL (rat [6]; [26]) of the same compound?
The NEL was 30 mg/kg/day.

And the NOAEL (rat [6]; [26])?
The NOAEL was ≥ 110 mg/kg/day.

With `CCC[CH2][Sn]([CH2]CCC)([CH2]CCC)[O][Sn]([CH2]CCC)([CH2]CCC)[CH2]CCC` [Bis(tributyltin)oxide] as the compound, how does the NEL (rat [7]; developmental / developmental malformation / mouth / jaw / cleft palate + developmental / offspring survival late / [other] / [other] + …) read?
Its NEL is 2.5 mg/kg/day.

And the LOAEL (rat [7]; [27])?
The LOAEL was > 16 mg/kg/day.

And the NOAEL (rat [7]; [27])?
The NOAEL was ≥ 16 mg/kg/day.

What about the LEL (rat [7]; systemic / in life observation / body weight / offspring (pup) weight) of the same compound?
Its LEL is 5 mg/kg/day.

Which results are given for `COc1cc(OC)nc(NC(=O)[N-]S(=O)(=O)c2ncccc2OCC(F)(F)F)n1.[Na+]` [Trifloxysulfuron-sodium]?
LEL (rat [8]; [28]): 30 mg/kg/day; NEL (rat [8]; [28]): < 30 mg/kg/day; LOAEL (rat [8]; [29]): 1000 mg/kg/day; NOAEL (rat [8]; [29]): 300 mg/kg/day; LOAEL (rat [8]; [30]): 1000 mg/kg/day; NEL (rat [8]; [30]): 30 mg/kg/day; NOAEL (rat [8]; [30]): 300 mg/kg/day; LEL (rat [8]; [20]): 300 mg/kg/day; LEL (rat [9]; [31]): 99.3 mg/kg/day; LOAEL (rat [9]; [31]): 99.3 mg/kg/day; NEL (rat [9]; [32]): 23.7 mg/kg/day; NOAEL (rat [9]; [32]): 23.7 mg/kg/day; LEL (rabbit [10]; [33]): 100 mg/kg/day; LOAEL (rabbit [10]; [33]): 100 mg/kg/day; NEL (rabbit [10]; [33]): 50 mg/kg/day; NOAEL (rabbit [10]; [33]): 50 mg/kg/day; LEL (rabbit [10]; [34]): 250 mg/kg/day; LOAEL (rabbit [10]; [34]): 250 mg/kg/day; NEL (rabbit [10]; [35]): 100 mg/kg/day; NOAEL (rabbit [10]; [35]): 100 mg/kg/day; LEL (dog [11]; systemic / pathology gross / lung / foci): 15 mg/kg/day; NEL (dog [11]; [36]): 6.51 mg/kg/day; NOAEL (dog [11]; [36]): 51.1 mg/kg/day; LOAEL (dog [11]; systemic / pathology gross / lung / foci + systemic / pathology microscopic / lung / thickened): 123 mg/kg/day; LEL (rat [12]; [37]): 631 mg/kg/day; LOAEL (rat [12]; [37]): 631 mg/kg/day; NEL (rat [12]; [37]): 78.8 mg/kg/day; NOAEL (rat [12]; [37]): 78.8 mg/kg/day; LEL (rat [12]; [38]): 631 mg/kg/day; LOAEL (rat [12]; [38]): 631 mg/kg/day; NEL (rat [12]; [38]): 78.8 mg/kg/day; NOAEL (rat [12]; [38]): 78.8 mg/kg/day; LEL (rat [13]; systemic / clinical chemistry / cytochrome p450, nos / cytochrome p450, nos): 239 mg/kg/day; LOAEL (rat [13]; [39]): 1050 mg/kg/day; NEL (rat [13]; [40]): 65.7 mg/kg/day; NOAEL (rat [13]; [40]): 507 mg/kg/day; LEL (mouse; [39]): 24.1 mg/kg/day; LOAEL (mouse; [39]): 24.1 mg/kg/day; NEL (mouse; [41]): 5.76 mg/kg/day; NOAEL (mouse; [41]): 5.76 mg/kg/day; LEL (dog [14]): 164 mg/kg/day; LOAEL (dog [14]): 164 mg/kg/day; NEL (dog [14]): 19.8 mg/kg/day; NOAEL (dog [14]): 19.8 mg/kg/day
